The subject of data set [1] is healthy elderly male and female subjects. Particulars: in vivo.
Data set [2] has as its system healthy, male and female subjects. As to the kind of experiment: Driving performance (real driving on the road) after evening and middle of the night dosing. Particulars: for effect on memory test, body sway, DSST or critical tracking: cognitive and psychomotor test battery; for effect on memory test, body sway, DSST or critical tracking / effect on driving: gaboxadol 15 mg; for effect on driving: driving test at 9 am; for tolerability / most frequent adverse events: 15 mg. In kind it is in vivo, human. From the text: The study participants included healthy, male and female subjects between 21 and 45 years of age, with a valid drivers license for at least 3 years.
Following a cognitive and psychomotor test battery, the driving test started at 9 am and lasted for one hour.

The subject of data set [3] is healthy adults subjected to a 5-hour sleep restriction. As to the kind of experiment: Daytime performance after sleep restriction (MSLT, SWS, KSS, neurobehavioral battery). The data set is classed as in vivo, human. How it is done: The study included a 2-night single-blind placebo run-in period, a 4-night double-blind treatment period during which sleep was restricted to 5 hours and a 2-night single-blind placebo run-out period. The study included healthy male and female volunteers 18 to <55 years of age.
2-night run-in period: All patients received placebo ?
2-night run-out period: All patients received placebo
The primary endpoints included observations based on the Multiple Sleep Latency Test (MSLT) and Slow Wave Sleep (SWS) assessment.

Data set [4] has as its system subjects with Angelman syndrome. As to the kind of experiment: Clinical Global Impressions (CGI-S, CGI-I) in 12-week placebo-controlled Angelman syndrome trial. In kind it is in vivo, human. Particulars: for percentage very much improved on CGI-I: QD group; for responders (one point or greater improvement in the CGI-I scale): once daily dose. The source says:
CGI-S scale assessed all sub-domains of Angelman syndrome (gross and fine motor ability, sleep, and adaptive behavior) plus globally by the investigator. […] The Clinical Global Impressions-Improvement (CGI-I) scale was used to assess all sub-domains of Angelman syndrome (gross and fine motor ability, sleep, and adaptive behavior) plus globally by the investigator and caregiver. CGI-I is a 7-point scale in which the investigator rates the improvement or worsening of symptoms compared to baseline.

The test system is the same in data set [5]. As to the kind of experiment: Sleep diary in 12-week placebo-controlled Angelman syndrome trial. The data set is classed as in vivo, human. Particulars: for 6-week LS Mean sleep time (total sleep time at night) / 12-week LS Mean sleep time (total sleep time at night): sleep diary. On the procedure: This multicenter, randomized, parallel (3-arm), double-blind, placebo-controlled trial enrolled 88 patients including adults (n=66) and adolescents (n=22) aged 13 to 49 years of age, diagnosed with Angelman syndrome. […] The dosing schedules that were assessed against placebo were once daily (QD): An evening dose titrated to the target dose of 15 mg unless not tolerated; and twice daily (BID): Evening and morning doses titrated to the target doses of 15 mg evening dose and 10 mg morning dose unless not tolerated.
The observed and change from baseline in total hours of sleep time at night (assessed from subject Sleep Diary) is provided in Table III.

For data set [6] the test system is unchanged. As to the kind of experiment: Adverse events in 12-week placebo-controlled Angelman syndrome trial. The data set is classed as in vivo, human.
In another data set the test system is insomnia. The settings on record: three-month efficacy study; cited from earlier work.
Data set [7] has as its system Purkinje cells in cerebellar brain slices. The settings on record: low doses; cited from earlier work.
The test system of the next data set is Ube3a-deficient mice. The settings on record: low doses; Ube3a-deficient mice in vivo; cited from earlier work.
Data set [8] deals with patients with a history of drug abuse. The settings on record: cited from earlier work.
Data set [9] can be described thus: Plasma concentration profiles, dose proportionality and absolute bioavailability of gaboxadol after single oral doses and 10 mg IV. The settings on record: geometric mean, N = 10.
[10] abbreviates: middle-of-the-night (4 am) administration, zolpidem 10 mg.
The mark [11] stands for this setting: BID dosing (10 mg morning, 15 mg evening), N = 29.

SMILES strings stand for the structures. “Also recorded” adds a separate entry of the source.

Regarding `CCN(CC)CCN1C(=O)CN=C(c2ccccc2F)c2cc(Cl)ccc21` [Flurazepam], the “residual effect on primary endpoints Choice Reaction Time and Critical Flicker Fusion” value in [1] is “showed significant effect”.

With `CN1CCN(C(=O)OC2c3nccnc3C(=O)N2c2ccc(Cl)cn2)CC1` (stereo not drawn) [zopiclone], the “effect on memory test, body sway, DSST or critical tracking” value in data set [2] (zopiclone 7.5 mg) is “had effect on several of these tests”. The effect on driving result in data set [2] (evening dose, zopiclone 7.5 mg) was “numerically greater effect”.

With `Oc1noc2c1CCNC2` [gaboxadol, 4,5,6,7-tetrahydroisoxazolo [5,4-c]pyridine-3-ol], in data set [2] (zopiclone 7.5 mg), the “effect on memory test, body sway, DSST or critical tracking” value is on record as “no effect”. Further, the tolerability result in data set [2] (evening dose) and in data set [2] (middle-of-the-night dose) was “well tolerated” throughout. The “most frequent adverse events” value in data set [2] (evening treatment) is “headache and somnolence”; in [2] (middle-of-the-night treatment), “dizziness, nausea and somnolence”. Further, in [2] (gaboxadol 15 mg evening dose vs 0.05% blood alcohol concentration), the “effect on driving compared with alcohol” value was “less than the effect observed at a 0.05% blood alcohol concentration”. Further, the effect on driving entry in data set [2] (setting [10]) is on record as “clinically relevant impairing effect”. Besides, in [3] (15 mg vs placebo), the “biophysiological measures of stress (heart rate variability, cortisol levels, catecholamine levels, body temperature) vs placebo” value was “no differences”. The “daytime performance, effect sizes for the neurocognitive battery” value in data set [3] (15 mg vs placebo) is given as “no strong evidence that gaboxadol improves daytime performance”. Also, in [3] (15 mg, Sleep Restriction period), the “subjective daytime sleepiness vs placebo” value was “trend towards less subjective daytime sleepiness”. For the same compound, in data set [3] (15 mg, Sleep Restriction period, p<0.001, 1 sided), the “amount of slow wave sleep (SWS) vs placebo” value is given as “increases the amount of slow wave sleep; also recorded: significantly more SWS”. In data set [3] (15 mg, Sleep Restriction period, p=0.047, 1 sided), the “daytime sleepiness (sleep propensity by MSLT) vs placebo” value is given as “protective effect on reducing daytime sleepiness; also recorded: significantly less daytime sleepiness”. For the same compound, the “MSLT longer than placebo, average” value in [3] (15 mg, last two Sleep Restriction days) turned out to be 2.01 min. Moreover, the “Karolinska Sleepiness Score (KSS) less than placebo, average” value in [3] (15 mg, last two Sleep Restriction days, p=0.058, 1 sided, LDA model) was found to be 0.68. Besides, in data set [3] (15 mg, last two Sleep Restriction nights), the “SWS longer than placebo, average” value came out at 20.53 min. In addition, the “CGI-I 6-week LS Mean” value in data set [4] (setting [11]) was 3.54 (0.16); in [4] (Combined QD and BID, N = 58), 3.45 (0.12); in data set [4] (QD dosing (15 mg evening), N = 29, 7-point scale, clinician assessed), 3.54 (0.16). For the same compound, the “CGI-I 12-week LS Mean” value in data set [4] (setting [11]) is reported as 3.58 (0.16); in [4] (Combined QD and BID, N = 58), 3.29 (0.12). The figures for the “CGI-I 6-week LS Mean difference” value in [4] (BID dosing minus placebo), in data set [4] (Combined minus placebo) and in data set [4] (QD dosing minus placebo) were −0.06 (0.21), −0.15 (0.18) and −0.24 (0.21), respectively. For the same compound, the “CGI-I 12-week LS Mean difference” value is −0.21 (0.22) in data set [4] (BID dosing minus placebo), −0.49 (0.19) in [4] (Combined minus placebo) and −0.78 (0.22) in [4] (QD dosing minus placebo). Besides, the “percentage very much improved on CGI-I” value in [4] (18-24 year old, placebo 9%) was determined as 27%; in data set [4] (oldest cohort (25-49), placebo 11%) it was 20%; in data set [4] (youngest cohort (13-17), placebo 0%) it was 33%. Besides, the “CGI-S Hyperactivity, change” value in data set [4] (QD, placebo 3.1 to 3.0) lay within 3.5 to 2.9. The “CGI-S Stereotypic behavior, change” value in data set [4] (QD, placebo 3.3 to 3.6) lay within 3.7 to 3.1. In [4] (once daily dose cohort, all ages, placebo 26%), the “responders (one point or greater improvement in the CGI-I scale) in overall symptoms” value stood at 70%. Moreover, the “responders (one point or greater improvement in the CGI-I scale)” value came out at 83% in data set [4] (13-17 year old, placebo 29%); 73% in data set [4] (18-24 year old, placebo 27%); 60% in data set [4] (25-49 year old, placebo 22%). The “6-week LS Mean difference, sleep time” value is 0.30 (1.1) hours in data set [5] (BID dosing), 0.22 (0.94) hours in data set [5] (Combined) and 0.14 (0.81) hours in data set [5] (QD dosing). Also, the “12-week LS Mean difference, sleep time” value is reported as 0.18 (0.97) hours in data set [5] (BID dosing), 0.07 (1.0) hours in data set [5] (Combined) and −0.04 (1.1) hours in data set [5] (QD dosing). Besides, the “6-week LS Mean sleep time (total sleep time at night)” value is reported as 8.95 (1.1) hours in [5] (BID dosing, N = 29); 8.93 (1.3) hours in [5] (Combined, N = 58); 8.91 (1.5) hours in data set [5] (QD dosing, N = 29). Besides, the “12-week LS Mean sleep time (total sleep time at night)” value in [5] (BID dosing, N = 29) is 8.84 (1.1) hours; in [5] (Combined, N = 58), 8.80 (1.1) hours; in [5] (QD dosing, N = 29), 8.76 (1.2) hours. The “subjects with Abdominal Pain upper, number (%)” value in data set [6] (BID dosing, N = 29) is given as 0; in data set [6] (Combined, N = 58), 0; in data set [6] (QD dosing, N = 29), 0. Besides, the “subjects with At least 1 Adverse Event, number (%)” value in [6] (BID dosing, N = 29) is reported as 19 (66%); in data set [6] (Combined, N = 58), 37 (64%); in [6] (QD dosing, N = 29) it was 18 (62%). Moreover, the “subjects with Diarrhea, number (%)” value is 1 (3.4%) in data set [6] (BID dosing, N = 29); 1 (1.7%) in [6] (Combined, N = 58); 0 in data set [6] (QD dosing, N = 29). The “subjects with Gastrointestinal disorders, number (%)” value in data set [6] (BID dosing, N = 29) is 4 (13.8%); in data set [6] (Combined, N = 58), 4 (6.9%); in data set [6] (QD dosing, N = 29, placebo 6 of 29), 0. The “subjects with Nausea, number (%)” value in data set [6] (BID dosing, N = 29) was 2 (6.9%); in [6] (Combined, N = 58), 2 (3.4%); in [6] (QD dosing, N = 29), 0. The “subjects with Retching, number (%)” value in data set [6] (BID dosing, N = 29) is reported as 1 (3.4%); in data set [6] (Combined, N = 58) it was 1 (1.7%); in data set [6] (QD dosing, N = 29) it was 0. The “subjects with Vomiting, number (%)” value in [6] (BID dosing, N = 29) is 1 (3.4%); in [6] (Combined, N = 58), 1 (1.7%); in [6] (QD dosing, N = 29) it was 0. In addition, the “residual effect on primary endpoints Choice Reaction Time and Critical Flicker Fusion” value in [1] was “did not show residual effect”. Also, the “residual effects on other measurements (MSLT, DSST, Tracking, Memory tests, Body Sway, Leeds Sleep Evaluation Questionnaire)” value in data set [1] is reported as “did not show any signs of residual effects”. Further, the “effects in sleep onset and sleep maintenance” value in the data set with insomnia was “failed to show significant effects”. Further, the “abnormal firing properties of a population of Purkinje cells” value in data set [7] is reported as “improve the abnormal firing properties”. Further, the cerebellar ataxia result in the data set on Ube3a-deficient mice was “reduces cerebellar ataxia”. Moreover, the psychiatric adverse events result in [8] was “steep increase in psychiatric adverse events”. Moreover, the Fe in [9] (2.5 mg single oral dose) amounted to 43%; in [9] (5 mg single oral dose), 45%; in data set [9] (10 mg I.V.), 53%; in data set [9] (10 mg Oral), 53%; in [9] (15 mg single oral dose), 50%; in data set [9] (20 mg single oral dose), 53%.

Take `Cc1ccc(-c2nc3ccc(C)cn3c2CC(=O)N(C)C)cc1` [zolpidem]: the effect on driving result in [2] (setting [10]) is given as “numerically greater effect”.
